The text below walks through data of patent US10836793B2, “Compounds for the treatment of neurodegenerative diseases” (University of South Florida, priority 2018, dated 2020).

Structures are written as SMILES.

The target in test [1] is T1, Aβ42 (Homo sapiens, UniProt P05067).
T1 construct: and 42 amino acids in length (Aβ42)
Put plainly: Thioflavin T (ThT) spectroscopic assay of Aβ42 aggregation. It is filed as biochemical. The note with it: 1, 5 and 10 μM HW-C-9; Aβ42 5 μM; 37° C.; FIG. 4. As to the method:
(§1) The effect of HW-C-9 on Aβ42 was analyzed using the Thioflavin T (ThT) spectroscopic assay. Thioflavin T (ThT) is a benzothiazole salt obtained by the methylation of dehydrothiotoluidine with methanol in the presence of hydrochloric acid. ThT was used as a dye to visualize and quantify the presence or fibrilization of misfolded protein aggregates. Briefly, HW-C-9 in Tris Buffered Saline (TBS, pH 7.5) containing 10 μM ThT was added into a black 96 well plate. Aβ42 protein monomer was freshly thawed and used to make a stock 5 μM solution in TBS. An equal volume of Aβ42 solution was added to each well to a final concentration of 2.5 μM Aβ42 and incubated at 37° C. Time-dependent fluorescence change was monitored by a Synergy 2 plate reader at an excitation wavelength of 440 nm and emission at 482 nm. The fluorescence intensity of ThT was measured over time, as ThT changed fluorescence intensity upon binding to the Aβ42 protein aggregates. 100% aggregation was defined as the fluorescence change of 2.5 μM Aβ42 in TBS buffer containing 5 μM ThT after 24 hours.
In FIG. 4, C1 is 1 μM of HW-C-9, C3 is 5 μM of HW-C-9, and C4 is 10 μM of HW-C-9. Aβ42 was present in all samples at a concentration of 5 μM. The top curve (red line, “Agg”) is the Aβ42-only control.

Test [2] concerns recombinant human tau protein. Put plainly: ThT assay of tau protein aggregation. It is filed as biochemical. The note with it: 100, 50, 20, 10 and 1 μM HW-C-9; Tau 10 μM; FIG. 5. The procedure: as §1
The effect of HW-C-9 on recombinant human tau protein was analyzed using the ThT assay, as detailed in Example 2, but with tau protein in place of Aβ42. In FIG. 5, C1 is 100 μM of HW-C-9, C2 is 50 μM of HW-C-9, C3 is 20 μM of HW-C-9, C4 is 10 μM of HW-C-9, and C5 is 1 μM of HW-C-9. […]

Test [3] deals with T1, Aβ42. In words: Western blot of Aβ42 aggregation. Format: biochemical. The conditions noted are these: 40 μM HW-C-9 and 20 μM Aβ; FIG. 6A. The procedure: (§2) Shown in FIG. 6A is a Western blot of Aβ42, wherein lane 1 is 20 μM of Aβ, lane 2 is 40 μM of HW-155-1 as a control and 20 μM of Aβ, and lane 3 is 40 μM of HW-C-9 and 20 μM of Aβ. Shown in FIG. 6B on the left is mouse brain tissue incubated overnight with and without 25 μM of HW-C-9, and then immunohistochemically stained with Aβ42 antibodies. On the right of FIG. 6B is a graphical quantification of the density and strength of the antibody stains.

Test [4] has as its system Aβ42 amyloid plaques in mouse brain tissue. In words: Mouse brain tissue incubated with compound, immunohistochemical staining with Aβ42 antibodies. The conditions noted are these: mouse brain tissue incubated overnight with 25 μM HW-C-9; FIG. 6B. As to the method:
as §2

Test [5] addresses human recombinant alpha-synuclein (Homo sapiens, UniProt P37840). Put plainly: Western blot of alpha-synuclein aggregation. Format: biochemical. The conditions noted are these: aggregated for 7 days in the presence of 25 μg/mL HW-C-9; FIG. 7. As to the method:
The effect of HW-C-9 on synuclein was analyzed with a Western blot. Results are shown in FIG. 7, wherein lane 1 is human recombinant alpha-synuclein (stained with goat anti-human alpha-synuclein antibody) without aggregation as a control, lane 2 is human recombinant alpha-synuclein (stained with goat anti-human alpha-synuclein antibody) aggregated for 7 days, and lane 3 is human recombinant alpha-synuclein (stained with goat anti-human alpha-synuclein antibody) aggregated for 7 days in the presence of 25 μg/mL of HW-C-9.
Background: In western blotting, separated proteins are transferred to a membrane and probed.

T1 sequence (P05067 672-713 limits assumed): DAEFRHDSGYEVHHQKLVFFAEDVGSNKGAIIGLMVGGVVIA

Turning to `C=CCOC(=O)N(CC(=O)N[C@@H](Cc1ccccc1)CN(CC(=O)N[C@@H](CCCCN)CN(CC(=O)N[C@@H](CC(C)C)CN(CC(=O)NCCCCCCCC(=O)NCCCC[C@H](NC(=O)CCCCCCCNC(=O)CN(C[C@H](CC(C)C)NC(=O)CN(C[C@H](CCCCN)NC(=O)CN(C[C@H](Cc1ccccc1)NC(=O)CN(C[C@@H](N)CCCCN)C(=O)OCC=C)C(=O)CCc1ccccc1)C(=O)CC(C)C)C(=O)CC(C)C)C(N)=O)C(=O)CC(C)C)C(=O)CC(C)C)C(=O)CCc1ccccc1)C[C@@H](N)CCCCN` [HW-C-9], the “inhibition of Aβ42 aggregation (ThT fluorescence)” value on Aβ42 [1] is recorded as “can inhibit Aβ42 aggregation at all concentrations tested”. In test [2], the “inhibition of tau protein aggregation (ThT fluorescence)” value is given as “can inhibit aggregation of tau protein at all concentrations tested”. For the same compound, at Aβ42 [3], the “inhibition of Aβ42 aggregation (Western blot)” value was “can inhibit aggregation of Aβ42”. In test [4], the “removal of amyloid plaques (density and strength of Aβ42 antibody stains)” value is “remove amyloid plaques”. The “inhibition of alpha-synuclein aggregation (Western blot)” value in test [5] is “can inhibit aggregation of alpha-synuclein”.
